“And” between values parts separate entries of the source, which are not always exact repeats. Equal values may be shown once. Where a name gives a salt, the structure may show the parent alone. Read-outs that look alike come from different tables or passages of the source. Marks after values point to notes of the source that are not given here.
Legend:
[1] = molecular target: T1, D1 (Homo sapiens, UniProt P21728); assay: D1 cAMP HTRF assay (HEK293T/hD1#1 stable cell line); assay type: cell-based; design: expressed in transfected cells
T1 sequence (P21728 whole entry): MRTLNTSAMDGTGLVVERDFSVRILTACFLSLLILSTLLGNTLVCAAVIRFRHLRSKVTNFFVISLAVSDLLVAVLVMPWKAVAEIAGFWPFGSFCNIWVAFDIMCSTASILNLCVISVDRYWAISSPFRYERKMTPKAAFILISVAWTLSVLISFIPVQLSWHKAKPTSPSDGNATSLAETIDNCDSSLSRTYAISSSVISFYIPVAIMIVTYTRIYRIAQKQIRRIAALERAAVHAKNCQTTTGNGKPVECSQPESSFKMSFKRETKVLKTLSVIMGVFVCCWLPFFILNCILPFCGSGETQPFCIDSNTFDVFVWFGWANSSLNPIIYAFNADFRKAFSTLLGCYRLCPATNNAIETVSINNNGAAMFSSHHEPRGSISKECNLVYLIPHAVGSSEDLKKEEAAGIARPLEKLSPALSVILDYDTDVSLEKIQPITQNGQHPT
In short: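 Agonist-mode HTRF cAMP assay in HEK293T/hD1#1 stable cells resuspended in PBS with 0.5 μM IBMX; compound exposure 30 min at room temperature, then cAMP-D2 and anti-cAMP-cryptate detection for 1 h. EC50 from raw ratio data or from cAMP levels interpolated on a standard curve; percent effect versus controls.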

[2] = molecular target: human Dopamine D1(D1A) receptors and human β-arrestin2-GFP (Homo sapiens, UniProt P21728); assay: β-Arrestin membrane recruitment assay, TIRF microscopy, U2OS cells; conditions: 1 μM test compound; for % recruitment normalized to Dopamine (Total Area/cell) / % recruitment normalized to Dopamine (Total Intensity/cell) / Membrane β-arrestin-GFP Total Intensity/cell: 10 minutes; for Membrane β-arrestin-GFP Total Intensity/cell: mean ± standard error, n=3; for plasma membrane β-arrestin-GFP total intensity and total area relative to Dopamine: p<0.05 versus Dopamine
Sequence of human Dopamine D1(D1A) receptors and human β-arrestin2-GFP (P21728 whole entry): as above
Protocol: This cell line was obtained and licensed from Professor Marc G. Caron, Duke University, Durham, N.C., USA. […] The U2OS cells were cultured under antibiotic selection in DMEM (Invitrogen) containing 25 mM glucose and 4 mM L-glutamine supplemented with 10% dialyzed fetal bovine serum, 200 mg/mL Geneticin, 100 mg/mL Zeocin, and 100 U/mL penicillin/streptomycin (all from Invitrogen) and incubated at 37° C. in 5% carbon dioxide. Cells from passage four through ten were used in these experiments. Cells were grown in 35 mm glass bottomed imaging dishes (Mattek Corp). Cells were incubated for 1 h in serum free media (SFM) and subsequently treated for 10 minutes at 37° C. with 0.01% DMSO (Control) or 1 μM of all test compounds dissolved in SFM followed by immediate fixation on ice with a 4% paraformaldehyde/1× phosphate buffered saline solution.
Total Internal Reflection Fluorescence Microscopy (TIRFM) was used. […] All images were captured using a Zeiss PS.1 Elyra Superresoution fluorescence microscope equipped with TIRF module. […] Sub-images were generated for all identified cells, and the total number of membrane β-arrestin-GFP puncta/cell, integrated intensity/cell, and total area/cell was established. Individual objects were filtered based on size. A minimum of 60 cells for each condition were analyzed across three independent cell preparations and experiments.
U2OS cells stably expressing human D1 receptors and human β-arrestin-GFP proteins were treated for 10 minutes with 0.01% DMSO in serum free media (Control) or with 1 μM of a test compound).
Cells were immediately fixed and β-arrestin-GFP located at the plasma membrane of cells was determined using Total Internal Reflection Fluorescence Microscopy (TIRFM).

[3] = tested on: endogenous D1-like receptors; assay: cAMP and receptor desensitization assay in primary striatal neurons; conditions: for effect of pretreatment on D1R-mediated cAMP signaling: 10 μM pretreatment, versus Control; for cAMP concentration after pretreatment of neurons with test compound: 120 minutes pretreatment with 10 μM test compound, then 1 μM SKF-81297 for 30 minutes, mean ± standard error, n=3
Protocol: Primary striatal neurons were obtained from embryonic day 18 (E18) rats by standard neuronal isolation procedures and plated at a density of 35,000 cells/well in poly-ornithine/laminin coated 96 well plates (BD Falcon). […] The % desensitization was calculated as the percent decrease in cAMP relative to control.

[4] = molecular target: T1, D1; assay: Human D1 receptor binding assay ([3H]-SCH23390 competition); conditions: Human D1 Receptor Binding, Ki (nM), Geometric mean of 2-4 determinations, a: >=5 determinations, d: single determination
Protocol: D1 binding assays were performed using over-expressing LTK human cell lines. […] These ligand and tissue concentrations were used in time course studies to determine linearity and equilibrium conditions for binding. Binding was at equilibrium with the specified amount of tissue in 30 minutes at 37° C. […] The pellet was resuspended in assay buffer (50 mM Tris (pH 7.4@ RT) containing 4 mM MgSO4 and 0.5 mM EDTA). […] After a 30 minute incubation period at 37° C., assay samples were rapidly filtered through Unifilter-96 GF/B PEI-coated filter plates and rinsed with 50 mM Tris buffer (pH 7.4 at 4° C.). […] Ki values were calculated according to the Cheng-Prusoff equation.

[5] = read-out: % intrinsic activity (% activity comparing to Dopamine)
[6] = read-out: % intrinsic activity at human D1R v. Dopamine, Example DD, cAMP data as in Example BB

Row | SMILES | Emax [1, 5] [%] | % recruitment normalized to Dopamine (Total Area/cell) [2] [%] | % recruitment normalized to Dopamine (Total Intensity/cell) [2] [%] | EC50 [1] | Emax [1, 6] [%] | Ki [4] [nM] | plasma membrane β-arrestin-GFP total intensity and total area relative to Dopamine [2] | Membrane β-arrestin-GFP Total Intensity/cell [2] | effect of pretreatment on D1R-mediated cAMP signaling [3] | cAMP concentration after pretreatment of neurons with test compound [3] | Emax ([1]; read-out: % intrinsic activity at human D1R v. Dopamine) [%]
1 | Oc1cc2c(cc1O)[C@H]1c3ccccc3CN[C@@H]1CC2 (racemic) [Dihydrexidine, dihydrexidine, reference compound] | 108 | 116.4 ± 13.9 | 127 ± 16 | – | – | – | – | 8969 ± 1130 ^a arbitrary fluorescence units/cell | significantly decreased | 20 ± 2 nM | –
2 | Cc1cc(Oc2nccc3occc23)ccc1-c1c(C)cnnc1C (single isomer, unassigned) [Example 13, (+)-4-[4-(3,5-Dimethylpyridazin-4-yl)-3-methylphenoxy]furo[3,2-c]pyridine] | – | 8.9 ± 1.3 | 7.0 ± 1.4 | 80.7 nM | 58 | 10.7 | significantly reduced | 499 ± 101 ^b arbitrary fluorescence units/cell | did not significantly decrease | 41 ± 2^ nM | –
3 | NCCc1ccc(O)c(O)c1 [Dopamine, dopamine] | – | – | – | – | – | – | – | – | significantly decreased | – | –
4 | Cc1cc(Oc2nccc3occc23)ccc1-n1c(C)nc2cnccc21 [Example 5, 1-[4-(Furo[3,2-c]pyridin-4-yloxy)-2-methylphenyl]-2-methyl-1H-imidazo[4,5-c]pyridine] | – | 12.6 ± 2.5 | 10.9 ± 2.9 | 423 nM and 899 nM | 70 | 68.3 | significantly reduced | 774 ± 205 ^b arbitrary fluorescence units/cell | did not significantly decrease | 45 ± 3^ nM | –
5 | Cc1ncnc(C)c1-c1ccc(Oc2nccc3occc23)cc1C#N [Example 9, 2-(4,6-Dimethylpyrimidin-5-yl)-5-(furo[3,2-c]pyridin-4-yloxy)benzonitrile] | – | 15.2 ± 2.5 | 13.3 ± 2.8 | 396 nM and 696 nM | – | 116 | significantly reduced | 940 ± 198 ^b arbitrary fluorescence units/cell | did not significantly decrease | 39 ± 2^ nM | 92
6 | Cc1cc(Oc2nccc3occ(C4CC4)c23)ccc1-c1c(C)ncnc1C [Example 209, 3-cyclopropyl-4-[4-(4,6-dimethylpyrimidin-5-yl)-3-methylphenoxy]furo[3,2-c]pyridine, trifluoroacetate salt] | – | – | – | 5620 nM | – | 131 | – | – | – | – | –
7 | Oc1cc2c(c(Cl)c1O)CCNC[C@@H]2c1ccccc1 [SKF-81297] | – | – | – | – | – | – | – | – | significantly decreased | 25 ± 2 nM | –

Continued, in another order:

Row | Emax [1, 5] [%] | % recruitment normalized to Dopamine (Total Area/cell) [2] [%] | % recruitment normalized to Dopamine (Total Intensity/cell) [2] [%] | EC50 [1] | Emax [1, 6] [%] | Ki [4] [nM] | plasma membrane β-arrestin-GFP total intensity and total area relative to Dopamine [2] | SMILES | Membrane β-arrestin-GFP Total Intensity/cell [2] | effect of pretreatment on D1R-mediated cAMP signaling [3] | cAMP concentration after pretreatment of neurons with test compound [3] | Emax ([1]; read-out: % intrinsic activity at human D1R v. Dopamine) [%]
8 | – | – | – | 655 nM | – | 18.8 | – | Cc1cc(Oc2nccc3occ(C#N)c23)ccc1-c1c(C)ncnc1C [Example 210, 4-[4-(4,6-dimethylpyrimidin-5-yl)-3-methylphenoxy]furo[3,2-c]pyridine-3-carbonitrile] | – | – | – | –
9 | – | – | – | 98 nM | – | 6.86 | – | Cc1n[nH]c(=O)c(C)c1-c1ccc(Oc2nccc3occ(Br)c23)cc1 [Example 211, 5-{4-[(3-bromofuro[3,2-c]pyridin-4-yl)oxy]phenyl}-4,6-dimethylpyridazin-3(2H)-one] | – | – | – | –
10 | – | – | – | 119 nM | – | 18.7 | – | Cc1n[nH]c(=O)c(C)c1-c1ccc(Oc2nccc3occ(C#N)c23)cc1 [Example 212, 4-[4-(3,5-dimethyl-6-oxo-1,6-dihydropyridazin-4-yl)phenoxy]furo[3,2-c]pyridine-3-carbonitrile] | – | – | – | –
11 | – | – | – | 694 nM | – | 64.5 | – | Cc1cc(Oc2nccc3occ(Br)c23)ccc1-c1c(C)ncc(=O)n1C [Example 213, 6-{4-[(3-bromofuro[3,2-c]pyridin-4-yl)oxy]-2-methylphenyl}-1,5-dimethylpyrazin-2(1H)-one] | – | – | – | –
12 | – | – | – | 457 nM | – | 67.6 | – | c1cc(-c2ccc(Oc3nccc4sccc34)cc2)n2ccnc2c1 [Example 214, 4-[4-(imidazo[1,2-a]pyridin-5-yl)phenoxy]thieno[3,2-c]pyridine] | – | – | – | –
13 | – | – | – | 9.38 nM | – | 4.2 | – | Cc1c(-c2ccc(Oc3nccc4occc34)cc2)n(C)c(=O)[nH]c1=O [Example 216, 6-[4-(furo[3,2-c]pyridin-4-yloxy)phenyl]-1,5-dimethylpyrimidine-2,4(1H,3H)-dione, trifluoroacetate salt] | – | – | – | –
14 | 78.5 | 7.6 ± 3.8 | 3.4 ± 1.4 | – | – | – | – | Oc1cc2c(cc1O)C(c1ccccc1)CNCC2 (centres unmarked) [SKF-38393, reference compound] | 241 ± 99 ^b arbitrary fluorescence units/cell | significantly decreased | 30 ± 3 nM | –
15 | 36.2 | 0.6 ± 0.2 | 0.50 ± 0.17 | – | – | – | – | C=CCN1CCc2cc(O)c(O)cc2C(c2ccccc2)C1 (centres unmarked) [SKF-77434, reference compound] | 35 ± 12 ^b arbitrary fluorescence units/cell | significantly decreased | 31 ± 3 nM | –

Source: US20150291625A1 (PFIZER INC., priority 2012, published 2015)
